Measurements as given in BindingDB's records for doi:10.1021/cb700072n (University of New Mexico Health Sciences Center, 2007).

Assays:
[1] = biological target: T1, Estrogen receptor (Homo sapiens, UniProt P03372); assay: Competitive Binding Assay
T1 sequence (P03372 whole entry): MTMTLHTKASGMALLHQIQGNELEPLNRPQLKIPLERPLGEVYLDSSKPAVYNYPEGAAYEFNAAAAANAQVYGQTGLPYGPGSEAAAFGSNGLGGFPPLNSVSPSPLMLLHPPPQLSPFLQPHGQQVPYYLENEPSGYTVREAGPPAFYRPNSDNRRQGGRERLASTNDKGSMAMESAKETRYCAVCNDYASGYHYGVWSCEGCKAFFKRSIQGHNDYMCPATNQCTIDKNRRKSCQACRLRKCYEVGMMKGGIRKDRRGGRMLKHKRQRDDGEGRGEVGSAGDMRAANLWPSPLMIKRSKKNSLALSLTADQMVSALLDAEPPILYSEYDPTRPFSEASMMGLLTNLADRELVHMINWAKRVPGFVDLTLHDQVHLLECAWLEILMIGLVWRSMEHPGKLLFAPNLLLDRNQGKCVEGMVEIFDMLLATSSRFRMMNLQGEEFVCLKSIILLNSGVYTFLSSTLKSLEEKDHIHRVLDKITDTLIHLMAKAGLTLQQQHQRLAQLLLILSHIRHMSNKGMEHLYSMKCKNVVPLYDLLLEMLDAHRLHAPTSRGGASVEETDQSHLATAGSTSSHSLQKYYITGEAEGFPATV
Experimental: (§1) Competitive binding of estrogen to GPR30 and ER alpha were conducted using COS-7 cells transfected with GPR30-GFP or ER alpha-GFP and fluorescent estrogen, E2-Alexa633 labeled as a reporter.

[2] = biological target: G-protein coupled estrogen receptor 1 (Homo sapiens, UniProt Q99527); assay: Competitive Binding Assay
Experimental: as §1

Sequence of G-protein coupled estrogen receptor 1 (Q99527 whole entry): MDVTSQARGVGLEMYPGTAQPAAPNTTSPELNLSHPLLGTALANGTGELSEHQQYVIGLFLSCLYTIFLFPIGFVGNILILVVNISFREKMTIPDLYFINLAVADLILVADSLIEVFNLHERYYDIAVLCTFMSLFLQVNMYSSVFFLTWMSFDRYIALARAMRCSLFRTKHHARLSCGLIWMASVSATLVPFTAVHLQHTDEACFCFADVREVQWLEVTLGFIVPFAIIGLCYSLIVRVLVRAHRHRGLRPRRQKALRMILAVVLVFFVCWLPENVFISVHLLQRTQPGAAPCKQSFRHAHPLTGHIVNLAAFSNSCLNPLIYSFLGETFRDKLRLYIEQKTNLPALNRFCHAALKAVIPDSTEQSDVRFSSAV

Ki [1] [µM] | Ki [2] [µM] | SMILES
0.0014 | 0.017 | C[C@]12CCC3c4ccc(O)cc4CCC3C1CC[C@@]2(O)C#Cc1ccc([N+](C)(C)C)cc1 (stereo partly drawn) [E2-NMe3+]
0.0027 | 0.016 | CC(C)(C)OC(=O)NCc1ccc(C#C[C@]2(O)CCC3C4CCc5cc(O)ccc5C4CC[C@@]32C)cc1 (stereo partly drawn) [E2-NB]
0.0041 | 0.025 | C[C@]12CCC3c4ccc(O)cc4CCC3C1CC[C@@]2(O)C#Cc1ccc(CN)cc1 (stereo partly drawn) [E2-NH3+]
0.002 | 0.03 | C[C@]12CCC3c4ccc(O)cc4CCC3C1CC[C@@]2(O)C#Cc1cccc(C(=O)O)c1 (stereo partly drawn) [E2-COO-]
